Measurements from PubChem BioAssay (NCI).
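1) Cells in 96-well plates. 2) Compound, 48 h, 5 concentrations. 3) Linear interpolation between surrounding doses. 4) Unreached endpoint = highest concentration. The concentration for 50% growth inhibition is given as GI50. TGI: concentration producing complete growth inhibition.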

Assays:
Assay in all cases: DTP human tumour cell line panel, 48 h
NCI-H23 lung = system: NCI-H23 lung
UACC-257 melanoma = system: UACC-257 melanoma
NCI-H460 lung = system: NCI-H460 lung
RXF 393 renal = system: RXF 393 renal
CAKI-1 renal = system: CAKI-1 renal
SF-268 CNS = system: SF-268 CNS
OVCAR-8 ovarian = system: OVCAR-8 ovarian
HCT-15 colon = system: HCT-15 colon
MCF7 breast = system: MCF7 breast
MDA-MB-231 breast = system: MDA-MB-231 breast

Work on `CCC(C)C(=O)c1c(O)c(C/C=C(\C)CCC=C(C)C)c(O)c2c(C(O)CC)cc(=O)oc12` (centres undefined) yielded a TGI (NCI-H23 lung) of 3.89 µM, a TGI (UACC-257 melanoma) of 6.84 µM and a TGI (NCI-H460 lung) of 7.23 µM. It also gave a TGI (RXF 393 renal) of 7.19 µM, a TGI (CAKI-1 renal) of 12.1 µM and a TGI (SF-268 CNS) of 10.8 µM.
With `CCOC(=O)/C=C(\C)c1ccc(OC)cc1` the TGI (NCI-H23 lung) was greater than 100 µM, the TGI (UACC-257 melanoma) was greater than 100 µM and the TGI (NCI-H460 lung) was greater than 100 µM. It also gave a TGI (RXF 393 renal) greater than 100 µM, a TGI (CAKI-1 renal) greater than 100 µM and a TGI (SF-268 CNS) greater than 100 µM. It also gave a TGI (OVCAR-8 ovarian) greater than 100 µM and a TGI (HCT-15 colon) greater than 100 µM.
With `COc1ccc(NC(=O)/C(=C/c2ccc(N(CCC#N)CCC#N)cc2)NC(=O)c2cc([N+](=O)[O-])ccc2Cl)cc1` the TGI (NCI-H23 lung) was greater than 100 µM, the TGI (RXF 393 renal) was greater than 100 µM and the TGI (CAKI-1 renal) was greater than 100 µM. For the same compound, the TGI (SF-268 CNS) was greater than 100 µM, the TGI (OVCAR-8 ovarian) was greater than 100 µM and the TGI (HCT-15 colon) was greater than 100 µM.
Compound `CC(C)C[P+](c1ccccc1)(c1ccccc1)c1ccccc1` has a TGI (NCI-H23 lung) greater than 100 µM, a TGI (MCF7 breast) greater than 100 µM and a TGI (MDA-MB-231 breast) greater than 100 µM. It also gave a TGI (UACC-257 melanoma) of 4.19 µM, a TGI (NCI-H460 lung) greater than 100 µM and a TGI (CAKI-1 renal) of 37.8 µM. The TGI (SF-268 CNS) was greater than 100 µM and the TGI (HCT-15 colon) was greater than 100 µM.
In the case of `COc1ccc(NC(=O)/C(CC2=Nc3ccc([N+](=O)[O-])cc3NC2O)=N\NC(=O)C[N+](C)(C)C)c(OC)c1` (centres undefined), the TGI (NCI-H23 lung) is reported as greater than 100 µM, the TGI (MCF7 breast) is reported as greater than 100 µM and the TGI (MDA-MB-231 breast) is reported as 42.1 µM. For the same compound, the TGI (UACC-257 melanoma) was greater than 100 µM, the TGI (NCI-H460 lung) was greater than 100 µM and the TGI (RXF 393 renal) was greater than 100 µM. The TGI (CAKI-1 renal) was greater than 100 µM, the TGI (SF-268 CNS) was greater than 100 µM and the TGI (OVCAR-8 ovarian) was 69.8 µM. For the same compound, the TGI (HCT-15 colon) was greater than 100 µM.
`CC1(C)N=C(N)N=C(N)N1c1cccc(OCCOc2ccc([N+](=O)[O-])cc2)c1` gave a TGI (NCI-H23 lung) greater than 100 µM, a TGI (MCF7 breast) greater than 100 µM and a TGI (MDA-MB-231 breast) greater than 100 µM. It also gave a TGI (UACC-257 melanoma) greater than 100 µM, a TGI (NCI-H460 lung) greater than 100 µM and a TGI (RXF 393 renal) greater than 100 µM. It also gave a TGI (CAKI-1 renal) greater than 100 µM, a TGI (SF-268 CNS) greater than 100 µM and a TGI (OVCAR-8 ovarian) greater than 100 µM. For the same compound, the TGI (HCT-15 colon) was greater than 100 µM.
Compound `N#Cc1c(NC(=S)NC(=O)c2ccccc2)nc2c(c1-c1ccccc1)CCCC2` has a TGI (NCI-H23 lung) greater than 100 µM, a TGI (MCF7 breast) greater than 100 µM and a TGI (MDA-MB-231 breast) greater than 100 µM. The TGI (UACC-257 melanoma) was greater than 100 µM, the TGI (NCI-H460 lung) was greater than 100 µM and the TGI (RXF 393 renal) was 56.5 µM. The TGI (CAKI-1 renal) was greater than 100 µM, the TGI (SF-268 CNS) was 27.2 µM and the TGI (OVCAR-8 ovarian) was greater than 100 µM. The TGI (HCT-15 colon) was greater than 100 µM.
For `COc1cc(C2c3cc4c(cc3[C@@H](Nc3cccc(C(C)=O)c3)C3COC(=O)[C@H]23)OCO4)cc(OC)c1O` (some centres undefined), the TGI (NCI-H23 lung) was 3.14 µM, the TGI (MCF7 breast) was 28.2 µM and the TGI (UACC-257 melanoma) was 8.57 µM. The TGI (NCI-H460 lung) was 1.07 µM, the TGI (RXF 393 renal) was 5.4 µM and the TGI (CAKI-1 renal) was 2.13 µM. The TGI (SF-268 CNS) was 13.1 µM, the TGI (OVCAR-8 ovarian) was greater than 28.9 µM and the TGI (HCT-15 colon) was 2.06 µM.
`ClCc1c(Cl)c(Cl)c(Cl)c(CCl)c1Cl` was tested, and the GI50 (NCI-H23 lung) was 2.3 µM, the TGI (NCI-H23 lung) was 6.67 µM and the GI50 (MCF7 breast) was 1.73 µM. The TGI (MCF7 breast) was 3.7 µM, the GI50 (MDA-MB-231 breast) was 1.81 µM and the TGI (MDA-MB-231 breast) was 3.29 µM. It also gave a GI50 (UACC-257 melanoma) of 1.84 µM, a TGI (UACC-257 melanoma) of 3.45 µM and a GI50 (NCI-H460 lung) of 1.79 µM. For the same compound, the TGI (NCI-H460 lung) was 3.39 µM, the GI50 (RXF 393 renal) was 1.71 µM and the TGI (RXF 393 renal) was 3.08 µM. The GI50 (CAKI-1 renal) was 1.68 µM, the TGI (CAKI-1 renal) was 3.1 µM and the GI50 (OVCAR-8 ovarian) was 2.51 µM. The TGI (OVCAR-8 ovarian) was 6.03 µM, the GI50 (HCT-15 colon) was 1.52 µM and the TGI (HCT-15 colon) was 2.85 µM.
Compound `NCc1ccc(C(=O)O)cc1` has a TGI (NCI-H23 lung) greater than 100 µM, a TGI (MDA-MB-231 breast) greater than 100 µM and a TGI (UACC-257 melanoma) greater than 100 µM. It also gave a TGI (NCI-H460 lung) greater than 100 µM, a TGI (RXF 393 renal) greater than 100 µM and a TGI (CAKI-1 renal) greater than 100 µM. The TGI (SF-268 CNS) was greater than 100 µM, the TGI (OVCAR-8 ovarian) was greater than 100 µM and the TGI (HCT-15 colon) was greater than 100 µM.
Work on `CCO/N=[N+](\[O-])N(CC)CC` yielded a TGI (NCI-H23 lung) greater than 100 µM, a TGI (UACC-257 melanoma) greater than 100 µM and a TGI (NCI-H460 lung) greater than 100 µM. For the same compound, the TGI (RXF 393 renal) was greater than 100 µM, the TGI (CAKI-1 renal) was greater than 100 µM and the TGI (SF-268 CNS) was greater than 100 µM. The TGI (OVCAR-8 ovarian) was greater than 100 µM and the TGI (HCT-15 colon) was greater than 100 µM.
In the case of `COc1ccc(-c2cc(N3CCN(c4ccccc4)CC3)c(C#N)c(=O)o2)cc1`, the TGI (NCI-H23 lung) is reported as greater than 100 µM, the TGI (UACC-257 melanoma) is reported as greater than 100 µM and the TGI (NCI-H460 lung) is reported as greater than 100 µM. The TGI (RXF 393 renal) was 38 µM, the TGI (CAKI-1 renal) was 53.9 µM and the TGI (SF-268 CNS) was 49.3 µM. For the same compound, the TGI (OVCAR-8 ovarian) was greater than 100 µM and the TGI (HCT-15 colon) was greater than 100 µM.
With `Cc1nc2ccccc2c(=O)[nH]1` the TGI (NCI-H23 lung) was greater than 100 µM, the TGI (UACC-257 melanoma) was greater than 100 µM and the TGI (NCI-H460 lung) was greater than 100 µM. It also gave a TGI (RXF 393 renal) greater than 100 µM, a TGI (SF-268 CNS) greater than 100 µM and a TGI (OVCAR-8 ovarian) greater than 100 µM. For the same compound, the TGI (HCT-15 colon) was greater than 100 µM.
`C#CC[C@@H]1C[C@]2(C)[C@H]3CC=C4[C@H]5CC(C)(C)CC[C@]5(C(=O)NCCCCN)CC[C@@]4(C)[C@]3(C)CC[C@H]2C(C)(C)[C@H]1OC(C)=O` was tested, and the GI50 (NCI-H23 lung) was 1.75 µM, the TGI (NCI-H23 lung) was 3.47 µM and the GI50 (MDA-MB-231 breast) was 1.61 µM. The TGI (MDA-MB-231 breast) was 3.1 µM, the GI50 (UACC-257 melanoma) was 1.87 µM and the TGI (UACC-257 melanoma) was 3.61 µM. The GI50 (NCI-H460 lung) was 1.84 µM, the TGI (NCI-H460 lung) was 3.47 µM and the GI50 (RXF 393 renal) was 1.52 µM. The TGI (RXF 393 renal) was 2.95 µM, the GI50 (CAKI-1 renal) was 1.54 µM and the TGI (CAKI-1 renal) was 2.9 µM. The GI50 (SF-268 CNS) was 1.73 µM and the TGI (SF-268 CNS) was 3.62 µM.
For `Cn1c(-c2ccc(/C=N\N3CCN(/N=C/c4ccc(-c5c[n+]6ccccc6n5C)cc4)CC3)cc2)c[n+]2ccccc12`, the TGI (NCI-H23 lung) was greater than 100 µM, the TGI (MCF7 breast) was greater than 100 µM and the TGI (MDA-MB-231 breast) was 75 µM. For the same compound, the TGI (UACC-257 melanoma) was greater than 100 µM, the TGI (NCI-H460 lung) was greater than 100 µM and the TGI (RXF 393 renal) was 60.9 µM. It also gave a TGI (CAKI-1 renal) greater than 100 µM, a TGI (SF-268 CNS) greater than 100 µM and a TGI (OVCAR-8 ovarian) greater than 100 µM. It also gave a TGI (HCT-15 colon) greater than 100 µM.
Compound `CC[n+]1c(/C=C/c2ccc(N(CCCl)CCCl)cc2)ccc2cc(NC(=O)/C=C/c3ccccc3)ccc21` has a TGI (NCI-H23 lung) of 1.98 µM, a TGI (MCF7 breast) of 1.24 µM and a TGI (MDA-MB-231 breast) of 1.09 µM. It also gave a TGI (UACC-257 melanoma) of 1.13 µM, a TGI (NCI-H460 lung) of 1.36 µM and a TGI (RXF 393 renal) of 2.84 µM. The TGI (CAKI-1 renal) was 19.2 µM, the TGI (SF-268 CNS) was 1.96 µM and the TGI (OVCAR-8 ovarian) was 5.7 µM. The TGI (HCT-15 colon) was greater than 94.7 µM.
For `COc1ccc(CC(C)N)cc1` (centres undefined), the TGI (NCI-H23 lung) was greater than 100 µM, the TGI (UACC-257 melanoma) was greater than 100 µM and the TGI (NCI-H460 lung) was greater than 100 µM. It also gave a TGI (RXF 393 renal) greater than 100 µM, a TGI (CAKI-1 renal) greater than 100 µM and a TGI (SF-268 CNS) greater than 100 µM. For the same compound, the TGI (OVCAR-8 ovarian) was greater than 100 µM and the TGI (HCT-15 colon) was greater than 100 µM.
Compound `Brc1ccccc1-c1ncc(-c2ccccc2)o1` has a TGI (NCI-H23 lung) greater than 100 µM, a TGI (MCF7 breast) greater than 100 µM and a TGI (MDA-MB-231 breast) greater than 100 µM. It also gave a TGI (UACC-257 melanoma) greater than 100 µM, a TGI (NCI-H460 lung) greater than 100 µM and a TGI (RXF 393 renal) of 55.9 µM. The TGI (CAKI-1 renal) was greater than 100 µM, the TGI (SF-268 CNS) was greater than 100 µM and the TGI (OVCAR-8 ovarian) was greater than 100 µM. The TGI (HCT-15 colon) was 44.9 µM.
